# Entries after “also recorded” stand apart in the source; their conditions may differ. Where two headings read alike, the source gives them in different places.
# Legend:
# physchem = assay: physchem
# Excerpt: PBTE consists of a solution of 3% w/v benzyl alcohol, 8% w/v polysorbate 80, and 65% w/v polyethylene glycol (MW=300 daltons) in absolute ethanol. PBTE:D5W consists of PBTE diluted 1:1 in a solution of 5% dextrose in water. […] The solubility of the other compounds described herein can be obtained using standard techniques.
# C6 cells = assay: PDGF-stimulated DNA synthesis, C6 cells (3H-thymidine); type: cell-based, rat; settings: 50 ng/ml PDGF-BB
# PC3 = assay: Tumor cell line growth; type: cell-based; settings: Homo sapiens, PC-3, 96 h; prostate, 4 days
# Description: (§1) The assay measures protein content of acid-fixed cells using the counterion binding dye sulforhodamine B (SRB, Sigma). […] For other cell lines, the cells (2000 cells/well in 100 μL) were introduced into wells immediately after dispensing the drug solutions. After 4 days (37° C., 5% CO2) the monolayers were washed 3 times with PBS and fixed with 200 μL ice-cold 10% TCA (Fisher Scientific), and kept at 4° C. for 60 min. The TCA was removed and the fixed monolayers were washed 5 times with tap water and allowed to dry completely at room temperature on absorbent paper. The cellular protein was stained for 10 min with 100 μL 0.4% SRB dissolved in 1% acetic acid. After 5 washes with tap water, the dye was solubilized in 10 mM Tris base (100 μL per well) and absorbance read at 570 nm on a Dynatech plate reader model MR5000. Growth inhibition data are expressed as a percentage of absorbance detected in control wells which were treated with 0.4% DMSO alone. DMSO controls were not different from cells grown in regular growth medium. IC50 values were determined using a four parameter curve fit function.
# (§2) For K562, DlB, L1210, 7TDl, T27A, and Colo320 DM cells, an MTT assay was used to assess cell growth. […] The cells were incubated at 37° C. for 4 days in a humidified 7% CO2 atmosphere. At the end point, […] of MTT (5 mg/mL in PBS, Sigma) was added to each well. The plates were incubated at 37° C. for 4 hr followed by addition of […] of solubilization solution (20% w/v of SDS in 50% N, N-dimethylformamide, pH 4.7) to each well. The plates were incubated overnight in a sealed container with a humidified atmosphere. The absorbance was determined at 570 nm wavelength with a reference wavelength of 630 nm using an ELISA plate reader.
# Colo 320DM = assay: Tumor cell line growth; type: cell-based; settings: Homo sapiens, 96 h, colon, 4 days
# Description: as §1, §2
# Calu-6 = assay: Tumor cell line growth; type: cell-based; settings: Homo sapiens, Calu-6, 96 h; lung, 4 days
# Description: as §1, §2
# C81-61 = assay: Tumor cell line growth; type: cell-based; settings: Homo sapiens, C8161, 96 h; melanoma, 4 days
# Description: as §1, §2
# Ovcar3 = assay: Tumor cell line growth; type: cell-based; settings: Homo sapiens, OVCAR-3, 96 h; ovarian, 4 days
# Description: as §1, §2
# U373MG = assay: Tumor cell line growth; type: cell-based; settings: Homo sapiens, U373 MG, 96 h; glioma, 4 days
# Description: as §1, §2
# SF767T = assay: Tumor cell line growth; type: cell-based; settings: Homo sapiens
# Description: as §1, §2
# T47D = assay: Tumor cell line growth; type: cell-based; settings: Homo sapiens, 96 h, breast, 4 days
# Description: as §1, §2
# SF763 [1] = assay: Tumor cell line growth; type: cell-based
# Description: as §1, §2
# U1242 = assay: Tumor cell line growth; type: cell-based; settings: 96 h; glioma, 4 days
# Description: as §1, §2
# A172 = assay: Tumor cell line growth; type: cell-based; settings: Homo sapiens, A 172, 96 h; glioma, 4 days
# Description: as §1, §2
# A375 = assay: Tumor cell line growth; type: cell-based; settings: Homo sapiens, A-375, 96 h; melanoma, 4 days
# Description: as §1, §2
# SKOV3T = assay: Tumor cell line growth; type: cell-based; settings: Homo sapiens
# Description: as §1, §2
# MDA MB 361 = assay: Tumor cell line growth; type: cell-based; settings: Homo sapiens, MDA-MB-361, 96 h; breast, 4 days
# Description: as §1, §2
# Calu-3 = assay: Tumor cell line growth; type: cell-based; settings: Homo sapiens, Calu-3, 96 h; lung, 4 days
# Description: as §1, §2
# U118MG = assay: Tumor cell line growth; type: cell-based; settings: Homo sapiens, U-118-MG, 96 h; glioma, 4 days
# Description: as §1, §2
# SF763 [2] = assay: Xenograft in athymic mice; type: in vivo; settings: xenografted athymic mice
# Description: (§3) Cell lines were grown in appropriate medium (see Appendix 1). Cells were harvested at or near confluency with 0.05% Trypsin-EDTA and pelleted at 450×g for 10 min. Pellets were resuspended in sterile PBS or media (without FBS) to a particular concentration and the cells were implanted into the hindflank of mice. Tumor growth was measured over 3 to 6 weeks using venier calipers. Tumor volumes were calculated as a product of length×width×height unless otherwise indicated. P values were calculated using the Students' t-test.
# (§4) PDGF-R expression was measured qualitatively using a western blot.
# SF767 = assay: Xenograft in athymic mice; type: in vivo; settings: xenografted athymic mice
# Description: as §3, §4
# [3] = Ex vivo conversion of A10 to B11 in human plasma
# [4] = test system: autoimmune animal diseases; settings: in vivo; cited from earlier work
# [5] = test system: epidermal growth factor (EGF) receptor; settings: listed as leflunomide; cited from earlier work
# SKOV-3 cells = assay: Soft agar assay (SAA); type: cell-based; settings: Homo sapiens, SK-OV-3; PDGF-R expression -
# Description: After a 2 to 3 week incubation at 37° C., colonies larger than 50 μm were quantified using an Omnicon 3800 Tumor Colony counter.
# as §4
# U87MG cells = assay: Intracerebral U87MG tumor, athymic mice, survival; type: in vivo, human; settings: IC U87MG; control 60 days; P=0.15
# [6] = PDGF-R expression ++, read-out: SRB
structure (smiles),measurement,setting,value
"Cc1oncc1C(=O)Nc1ccc(C(F)(F)F)cc1 [Compound A10, 5-methylisoxazole-4 carboxylic acid-(4-trifluromethyl)-anilide]",solubility,"physchem; pbte, organic solvent or mixture",~60 mg/mL
same,solubility,physchem; pbte:d5w,~5 mg/mL
same,solubility in water,physchem; water,not very soluble in water
same,PDGF-stimulated DNA synthesis,C6 cells,decreased PDGF-stimulated DNA synthesis in both types of cells
same,IC50,PC3,46 µM
same,IC50,Colo 320DM,34 µM
same,IC50,Calu-6,70 µM
same,IC50,C81-61,40 µM
same,IC50,Ovcar3,> 100 µM
same,IC50,U373MG,115 µM
same,IC50,"SF767T; 96 h, glioma, 4 days, read-out: IC50",3 µM
same,IC50,SF767T; [6],3 µM
same,IC50,T47D,195 µM
same,IC50,"SF763 [1]; SF763, 96 h, glioma, 4 days, read-out: IC50",110 µM
same,IC50,"SF763 [1]; SF763, PDGF-R expression -, read-out: SRB",> 100 µM
same,IC50,U1242,19 µM
same,IC50,A172,32 µM
same,IC50,A375,25 µM
same,IC50,"SKOV3T; 96 h, ovarian, 4 days, read-out: IC50",40 µM
same,IC50,SKOV3T; [6],50 µM
same,IC50,MDA MB 361,200 µM
same,IC50,Calu-3,> 400 µM
same,IC50,U118MG,150 µM
same,In Vivo inhibition,SF763 [2],35%
same,In Vivo inhibition,SF767,18%
same,time of complete conversion to B11,"[3]; 25° C., human plasma",≤ 21 h
same,"A10 remaining, co-incubation of B11 and A10","[3]; fresh human plasma, after 21 hr",No A10 was detected after 21 hr
same,conversion to B11 in heat-inactivated plasma,"[3]; human, 15 min at 60° C.",does not occur
same,autoimmune animal diseases,[4],very effective in preventing and curing several autoimmune animal diseases
same,autophosphorylation of the EGF receptor,[5],"dose dependently, inhibited; also recorded: inhibit EGF induced EGF receptor autophosphorylation"
same,IC50,SKOV-3 cells,6.3 µM
same,mean survival,U87MG cells,65 days
